“Also recorded” adds a separate entry of the source.
Columns and labels:
[1] = tested on: melanoma lesions (stage III or IV metastatic melanoma); test: Human trial, single IL injection of 10% RB solution in unbuffered saline
[2] = tested on: spontaneous breast tumors; test: Tumor response to IL 10% RB in saline, report 020626.01C; assay type: in vivo, Neu+/+ x (1988A2Kb x Neu+/+) mice; conditions: 10% RB IL 50 μL/tumor Qd × 1
Murine Hepa 1-6 tumors = test: Tumor response to IL 10% RB in saline, report 051016.02B; assay type: in vivo, BALB/c Nude Mice; conditions: 10% RB 45 μL/tumor Qd × 1
[3] = cited from earlier work
[4] = Kp of RB with and without phosphate buffer; assay type: physicochemical
Source text: This may be compared to 66.7 in the absence of phosphate buffer, in which case the pH would have been between about 6 to about 6.5.

T-47D [ER−] tumors = test: Tumor response to IL 10% RB in saline, report 020110.01B; assay type: in vivo, BALB/c Nude Mice; conditions: 10% RB IL 25-50 μL/tumor Qd × 1; long passage T-47D [ER−]; 4/group
[5] = tested on: H69Ar human resistant SCLC tumors; test: Tumor response to IL 10% RB in saline, report 051017.01B; assay type: in vivo, Nu/nu Nude Mice; conditions: 10% RB 45 μL/tumor Qd × 1; 24 hours post injection and over 7 days of observation
[6] = Partitioning coefficient of RB, 1-octanol/0.9% saline, effect of pH
Description: The partition coefficient of RB was assessed over a range of pH values. The experiments were conducted by titrating RB solutions, measuring pH, then placing aliquots of the solutions into vials containing both organic (1-octanol) and aqueous (0.9% saline) phases. After mixing, the agents were allowed to partition for approximately 1 day. Based on absorption measurements (at the same wavelengths used in Experiment 1), the percentage of agent in each phase, the Kp and LogD (log of Kp) was reported.
Experiment 1 was conducted using a stock solution of 0.42 mg/mL RB, whereas Experiment 3 was conducted using a concentration of 0.08 mg/mL.

MCF-7 [ER+] tumors = test: Tumor response to IL 10% RB in saline, report 020110.01B; assay type: in vivo, BALB/c Nude Mice; conditions: 10% RB IL 25-50 μL/tumor Qd × 1; within 21 days; 4/group
MCF-7 [ER−] tumors = test: as above; assay type: in vivo, BALB/c Nude Mice; conditions: 10% RB IL 25-50 μL/tumor Qd × 1; within 21 days; 4/group
[7] = cited from earlier work; remark: listed apart in the source
[8] = Biodistribution (pharmacokinetic and toxicokinetic) after single IL injection in A375 tumor; assay type: in vivo, nu/nu mice; conditions: single IL injection of 1% or 6% RB
Description: Growth control and sham treatment groups received no injection. All dosing was performed on Study Day 1.
Pharmacokinetic and toxicokinetic data from RB-treated tumors illustrates that a single IL injection of RB leads to localized retention of drug tumor tissue. This is illustrated in FIGS. 4 and 5, which show concentration of RB in tumor tissue, peritumor tissue and blood for time points ranging from 0.5 hr to 360 hr (15 days) post injection.

[9] = Critical solubility of Rose Bengal in saline (cloudiness, absorbance at 1000 nm); assay type: physicochemical
Description: Solutions of RB at different concentrations were prepared at different sodium chloride concentrations. Saline 0.9% USP sodium chloride solution from Hospira, having a pH of 5.5, was used as a stock solution. Solutions having different sodium chloride concentrations were obtained by the addition of calculated amounts of sodium chloride.
The prepared RB/sodium chloride solutions were shaken for 1 hour and absorbance measurements were taken at 1000 nm to determine cloudiness. 1000 nm was chosen as this is in the near infra red where RB has negligible absorbance. Solution cloudiness was difficult to detect visually due to the very dark red color.
The following solutions were evaluated: • 1. 20% RB in saline concentrations of 1.0%, 1.5%, 1.6%, 1.7%, 1.8%, 1.9%, 2.0%, 2.5%, 2.6%, 2.7% and 2.9%; • 2. 15% RB in saline concentrations of […]; • 3. 10% RB in saline concentrations of 2.0%, 2.5%, 3.0% and 3.2%; and • 4. 40%, 45%, 50%, 55% and 60% solutions of RB in 0.9% saline.

[10] = Partitioning coefficient of Rose Bengal, saline/1-octanol, effect of electrolyte concentration; conditions: 0.5 mg/mL RB, approx. 1 day; for Kp: Partitioning coefficient (Kp)
Source text: After mixing, the agent was allowed to partition for approximately 1 day. Based on absorbance measurements at 550 nm for the aqueous phase and 564 nm for the organic phase, the percentage of agent in each phase was obtained.

[11] = 25 evaluable target lesions at final follow up
[12] = analysed per patient, 11 patients
[13] = larger lesions receiving 0.2 mL or greater doses of RB

O=C([O-])c1c(Cl)c(Cl)c(Cl)c(Cl)c1-c1c2cc(I)c(=O)c(I)c-2oc2c(I)c([O-])c(I)cc12.[Na+].[Na+] [RB, 4,5,6,7-Tetrachloro-2′,4′,5′,7′-tetraiodofluorescein]
objective response rate (ORR), target lesions [1, 11]: 48%
target lesions with complete response (CR), RECIST [1, 11]: 36%
target lesions with partial response (PR) [1, 11]: 12%
target lesions with progressive disease [1, 11]: 24%
target lesions with stable disease [1, 11]: 28%
CR, non-target lesions individually ([1]; 26 evaluable nontarget lesions): 15%
ORR, non-target lesions individually ([1]; 26 evaluable nontarget lesions): 27%
PD, non-target lesions individually ([1]; 26 evaluable nontarget lesions): 52%
PR, non-target lesions individually ([1]; 26 evaluable nontarget lesions): 12%
CR, overall response per patient [1, 12]: 27%
ORR, overall response per patient [1, 12]: 55%
PR, overall response per patient [1, 12]: 27%
progressive disease (PD), overall response per patient [1, 12]: 18%
stable disease (SD), overall response per patient [1, 12]: 27%
CR [1, 13]: 62%
PR [1, 13]: 8%
successful chemoablation (CR + PR) [1, 13]: ~70%
ORR of nontarget lesions ([1]; patients with a negative lesion response): 0%
ORR of nontarget lesions ([1]; patients with a positive objective response of target lesions): 44%
CR, non-target lesions per patient ([1]; per patient basis): 9%
ORR, non-target lesions per patient ([1]; per patient basis): 27%
PD, non-target lesions per patient ([1]; per patient basis): 27%
PR, non-target lesions per patient ([1]; per patient basis): 18%
Subsequent status ([1]; per patient, some had subsequent other treatment): Alive at 34; also recorded: Dead at 12; also recorded: Dead at 9; also recorded: Alive at 31; also recorded: Alive at 27; also recorded: Dead at 8; also recorded: Alive at 28; also recorded: Alive at 29; also recorded: Alive at 30
adverse effects ([1]; single IL treatment): generally mild and transient
tumor response [2]: IL RB ablated spontaneous breast
tumors fully ablated (Murine Hepa 1-6 tumors; 3 days post injection, 10/group): IL RB fully ablated 8/10 tumors 3
partial responses (number of tumors) (Murine Hepa 1-6 tumors; large tumors): responses were seen in 2 large
excretion ([3]; bile): rapidly excreted from the bile in unmetabolized form
removal from the blood ([3]; blood): almost exclusively removed from the blood by the liver
Kp ([4]; phosphate buffered saline, pH 7.4): 11.5
Kp ([4]; solution without phosphate buffer (unbuffered), absence of phosphate buffer, pH between about 6 to about 6.5): 66.7
tumors ablated (T-47D [ER−] tumors): (3/4).
tumors fully ablated [5]: IL RB fully ablated 5/5 tumors 24
solubility [6]: 195 µg/mL
partitioning coefficient versus pH ([6]; below a pH of about 4.4): rapidly increases
solubility of RB in the aqueous phase ([6]; below a pH of about 4.4 (lactone form)): almost complete insolubility
partitioning coefficient versus pH ([6]; pH range about 4 to about 10, 1-octanol/0.9% saline): consistent
tumors completely ablated (MCF-7 [ER+] tumors): [ER+] (4/4), MCF-7 [ER−] (4/4),
tumors completely ablated (MCF-7 [ER−] tumors): [ER+] (4/4), MCF-7 [ER−] (4/4),
half-life of RB in the murine blood stream [7]: approximately 30 min
persistence of markedly elevated RB levels in tumor samples ([8]; post-injection): at least 8 days
mean levels of RB in blood ([8]; 0.5 hr to 360 hr post injection): ≤ 3 µg/g
solution stability ([9]; RB solutions within the therapeutic amounts): stable
RB concentration that can be achieved ([9]; in 0.9% saline): up to 45%
% Partitioning in Octanol ([10]; 0.00% saline): 75.79 ± 1.75%
% Partitioning in Octanol ([10]; 0.50% saline): 95.13 ± 1.43%
% Partitioning in Octanol ([10]; 0.90% saline): 98.52 ± 0.26%
% Partitioning in Octanol ([10]; 2.50% saline): 99.35 ± 0.28%
Kp ([10]; 0.00% saline): 3.14 ± 0.29
Kp ([10]; 0.50% saline): 20.8 ± 6.77
Kp ([10]; 0.90% saline): 68.2 ± 4.43
Kp ([10]; 2.50% saline): 215 ± 105
Kp ([10]; […] saline): 44.2 ± 5.52
% Partitioning in Octanol ([10]; […] saline): 97.77 ± 0.25%
